{
  "source": "patent US7964558B2",
  "about": "“Therapeutic applications for C-peptide” (La Jolla, priority 2003, dated 2011)",
  "key": {"Na+K+ATPase": {"system": "Na+K+ATPase", "assay": "Na+K+ATPase activity in the sciatic nerve of diabetic BB/Wor rats", "assay_type": "in vivo, rat", "details": "once daily dose 75 nmol/kg, 8 weeks, sciatic nerve (FIG. 4)", "experimental": "(§1) Prediabetic male BB/Wor rats were used. Ten rats were used in each group, where the animals were closely age-matched. They were maintained in metabolic cages with free access to water and rat chow. Bodyweight, urine volume and glucosuria were monitored daily to ascertain onset of diabetes. Immediately after the onset of diabetes, administration of C-peptides was commenced in either a single dose/24 hours, three doses/24 hours or as a continuous infusion by osmopump.\n(§2) The single dose given was 75 nmol/kg and the three doses given were each 25 nmol/kg. The continuous infusion gave a dose of 75 nmol/kg over a 24 hour period.\n(§3) Synthetic rat C-peptide II with a purity of more than 98% by HPLC was used (Genosys, Cambridge, UK) dissolved in saline (12 mg/ml). Control rats were given a dose of saline instead of C-peptide. […]\nFor Na^+/K^+-ATPase activity, nerve samples were homogenized in 2 ml of 0.2 mol/l sucrose and 0.02 mol/l TRIS-HCl at pH 7.5. […] Na^+/K^+-ATPase activity was defined as the difference before and after ouabain and was expressed as μmol ADP formed per gram of wet weight per hour.\n(§4) Statistical analysis. The results are presented as means±SE and the significance of differences was calculated by analysis of variance (ANOVA). Group differences were assessed by post hoc analysis using the Student-Newman-Keul test. […]"}, "[1]": {"details": "dose injected into a rat; expected; cited from earlier work"}, "[2]": {"details": "in humans; cited from earlier work"}, "diabetic BB/Wor rats [3]": {"system": "diabetic BB/Wor rats", "assay": "Nerve conduction velocity in motor and sensory (sciatic-tibial) nerves of diabetic BB/Wor rats", "assay_type": "in vivo, rat", "experimental": "Further technical details can be found in Sima et al., Diabetologia (2001) 44: 889-897.\nas §1, §2\nSynthetic rat C-peptide II with a purity of more than 98% by HPLC was used (Genosys, Cambridge, UK) dissolved in saline (12 mg/ml). Control rats were given a dose of saline instead of C-peptide.\nThe nerve conduction velocity in motor and sensory nerves and Na^+K^+ATPase levels in the rats were measured. Baseline nerve conduction velocity was measured within 24 hours of onset of diabetes. […]\nas §4"}, "diabetic BB/Wor rats [4]": {"system": "diabetic BB/Wor rats", "assay": "Morphometric and teased fibre assessment of sural nerve in diabetic BB/Wor rats", "assay_type": "in vivo, rat", "details": "once daily dose 75 nmol/kg, 8 weeks, compared to diabetic rats (FIG. 5)", "experimental": "as §1, §2, §3\nTeased fibre examinations. A mean of 168±4 myelinated fibres were teased from each sural nerve and scored for specific changes. […] Changes were expressed as percentages of total fibres.\nas §4"}},
  "data": [
    {"substance": "C-peptide: Synthetic rat C-peptide II, purity more than 98% by HPLC (Genosys), dissolved in saline; used in Example 1 (EVEDPQVGQVELGAGPGAGSEQTLALEVARQ; Ins Rodent C-peptide)", "values": [
      {"measurement": "Na+K+ATPase activity", "setting": "Na+K+ATPase", "value": "clearly and sufficiently improved"},
      {"measurement": "time to disappear entirely from circulation", "setting": "[1]", "value": "2 to 3", "unit": "h"},
      {"measurement": "half-life", "setting": "[2]", "value": "approximately 30 minutes"},
      {"measurement": "effectiveness of once daily dose compared with other dosing regimens", "setting": "diabetic BB/Wor rats [3]; nerve conduction velocity and Na+K+ATPase activity, 75 nmol/kg once daily vs 3 x 25 nmol/kg daily or 75 nmol/kg/24 h continuous infusion by osmopump", "value": "as effective as three daily dose or a continuous infusion"},
      {"measurement": "nerve conduction velocity", "setting": "diabetic BB/Wor rats [3]; once daily dose 75 nmol/kg, 8 weeks, diabetic BB/Wor rats, motor and sensory nerves (FIGS. 2, 3)", "value": "clearly and sufficiently improved"},
      {"measurement": "morphology of cells (morphometric data)", "setting": "diabetic BB/Wor rats [4]", "value": "improved morphology"}
    ]}
  ]
}
